Results from ChEMBL document CHEMBL4665642, “Anticancer profile of newly synthesized BRAF inhibitors possess 5-(pyrimidin-4-yl)imidazo[2,1-b]thiazole scaffold” (Bioorg Med Chem, 2019).

Tests used:
Assay type in all cases: functional
Details in all cases: read-out: Activity
786-0 = assay: Cytotoxicity against human 786-0 cells assessed as cell viability at 10 uM incubated for 48 hrs by sulforhodamine B assay relative to control
NCI/ADR-RES = assay: Cytotoxicity against human NCI/ADR-RES cells assessed as cell viability at 10 uM incubated for 48 hrs by sulforhodamine B assay relative to control
RPMI-8226 = assay: Cytotoxicity against human RPMI-8226 cells assessed as cell viability at 10 uM incubated for 48 hrs by sulforhodamine B assay relative to control
HCC 2998 = assay: Cytotoxicity against human HCC 2998 cells assessed as cell viability at 10 uM incubated for 48 hrs by sulforhodamine B assay relative to control
UACC-62 = assay: Cytotoxicity against human UACC-62 cells assessed as cell viability at 10 uM incubated for 48 hrs by sulforhodamine B assay relative to control
PC-3 = assay: Cytotoxicity against human PC-3 cells assessed as cell viability at 10 uM incubated for 48 hrs by sulforhodamine B assay relative to control
HOP-62 = assay: Cytotoxicity against human HOP-62 cells assessed as cell viability at 10 uM incubated for 48 hrs by sulforhodamine B assay relative to control
Malme-3M = assay: Cytotoxicity against human Malme-3M cells assessed as cell viability at 10 uM incubated for 48 hrs by sulforhodamine B assay relative to control
COLO 205 = assay: Cytotoxicity against human COLO 205 cells assessed as cell viability at 10 uM incubated for 48 hrs by sulforhodamine B assay relative to control
MDA-MB-435 = assay: Cytotoxicity against human MDA-MB-435 cells assessed as cell viability at 10 uM incubated for 48 hrs by sulforhodamine B assay relative to control
NCI-H322M = assay: Cytotoxicity against human NCI-H322M cells assessed as cell viability at 10 uM incubated for 48 hrs by sulforhodamine B assay relative to control
CCRF-CEM = assay: Cytotoxicity against human CCRF-CEM cells assessed as cell viability at 10 uM incubated for 48 hrs by sulforhodamine B assay relative to control
NCI-H522 = assay: Cytotoxicity against human NCI-H522 cells assessed as cell viability at 10 uM incubated for 48 hrs by sulforhodamine B assay relative to control
NCI-H23 = assay: Cytotoxicity against human NCI-H23 cells assessed as cell viability at 10 uM incubated for 48 hrs by sulforhodamine B assay relative to control
UACC-257 = assay: Cytotoxicity against human UACC-257 cells assessed as cell viability at 10 uM incubated for 48 hrs by sulforhodamine B assay relative to control
SW-620 = assay: Cytotoxicity against human SW-620 cells assessed as cell viability at 10 uM incubated for 48 hrs by sulforhodamine B assay relative to control
KM12 = assay: Cytotoxicity against human KM12 cells assessed as cell viability at 10 uM incubated for 48 hrs by sulforhodamine B assay relative to control
K562 = assay: Cytotoxicity against human K562 cells assessed as cell viability at 10 uM incubated for 48 hrs by sulforhodamine B assay relative to control
OVCAR-5 = assay: Cytotoxicity against human OVCAR-5 cells assessed as cell viability at 10 uM incubated for 48 hrs by sulforhodamine B assay relative to control
ACHN = assay: Cytotoxicity against human ACHN cells assessed as cell viability at 10 uM incubated for 48 hrs by sulforhodamine B assay relative to control
U-251 = assay: Cytotoxicity against human U-251 cells assessed as cell viability at 10 uM incubated for 48 hrs by sulforhodamine B assay relative to control
SF-295 = assay: Cytotoxicity against human SF-295 cells assessed as cell viability at 10 uM incubated for 48 hrs by sulforhodamine B assay relative to control
SNB-75 = assay: Cytotoxicity against human SNB-75 cells assessed as cell viability at 10 uM incubated for 48 hrs by sulforhodamine B assay relative to control
SNB-19 = assay: Cytotoxicity against human SNB-19 cells assessed as cell viability at 10 uM incubated for 48 hrs by sulforhodamine B assay relative to control
IGROV-1 = assay: Cytotoxicity against human IGROV-1 cells assessed as cell viability at 10 uM incubated for 48 hrs by sulforhodamine B assay relative to control
EKVX = assay: Cytotoxicity against human EKVX cells assessed as cell viability at 10 uM incubated for 48 hrs by sulforhodamine B assay relative to control
OVCAR-8 = assay: Cytotoxicity against human OVCAR-8 cells assessed as cell viability at 10 uM incubated for 48 hrs by sulforhodamine B assay relative to control
CAKI-1 = assay: Cytotoxicity against human CAKI-1 cells assessed as cell viability at 10 uM incubated for 48 hrs by sulforhodamine B assay relative to control
SF-268 = assay: Cytotoxicity against human SF-268 cells assessed as cell viability at 10 uM incubated for 48 hrs by sulforhodamine B assay relative to control
SK-OV-3 = assay: Cytotoxicity against human SK-OV-3 cells assessed as cell viability at 10 uM incubated for 48 hrs by sulforhodamine B assay relative to control
HOP-92 = assay: Cytotoxicity against human HOP-92 cells assessed as cell viability at 10 uM incubated for 48 hrs by sulforhodamine B assay relative to control
UO-31 = assay: Cytotoxicity against human UO-31 cells assessed as cell viability at 10 uM incubated for 48 hrs by sulforhodamine B assay relative to control
MOLT-4 = assay: Cytotoxicity against human MOLT-4 cells assessed as cell viability at 10 uM incubated for 48 hrs by sulforhodamine B assay relative to control
TK-10 = assay: Cytotoxicity against human TK-10 cells assessed as cell viability at 10 uM incubated for 48 hrs by sulforhodamine B assay relative to control
SN12C = assay: Cytotoxicity against human SN12C cells assessed as cell viability at 10 uM incubated for 48 hrs by sulforhodamine B assay relative to control
HCT-116 = assay: Cytotoxicity against human HCT-116 cells assessed as cell viability at 10 uM incubated for 48 hrs by sulforhodamine B assay relative to control
OVCAR-3 = assay: Cytotoxicity against human OVCAR-3 cells assessed as cell viability at 10 uM incubated for 48 hrs by sulforhodamine B assay relative to control
OVCAR-4 = assay: Cytotoxicity against human OVCAR-4 cells assessed as cell viability at 10 uM incubated for 48 hrs by sulforhodamine B assay relative to control
SK-MEL-5 = assay: Cytotoxicity against human SK-MEL-5 cells assessed as cell viability at 10 uM incubated for 48 hrs by sulforhodamine B assay relative to control
M14 = assay: Cytotoxicity against human M14 cells assessed as cell viability at 10 uM incubated for 48 hrs by sulforhodamine B assay relative to control
BT-549 = assay: Cytotoxicity against human BT-549 cells assessed as cell viability at 10 uM incubated for 48 hrs by sulforhodamine B assay relative to control

O=S(=O)(NCCCNc1nccc(-c2c(-c3cccc(F)c3)nc3sccn23)n1)c1cccc(F)c1
viability at 10 µM (786-0): 66.3%
viability at 10 µM (NCI/ADR-RES): 17.6%
viability at 10 µM (RPMI-8226): 28%
viability at 10 µM (HCC 2998): 99.3%
viability at 10 µM (UACC-62): 6.36%
viability at 10 µM (PC-3): 27.1%
viability at 10 µM (HOP-62): 61.3%
viability at 10 µM (Malme-3M): 63.2%
viability at 10 µM (COLO 205): 23.4%
viability at 10 µM (MDA-MB-435): 24%
viability at 10 µM (NCI-H322M): 79.9%
viability at 10 µM (CCRF-CEM): 24.7%
viability at 10 µM (NCI-H522): 21.9%
viability at 10 µM (NCI-H23): 38.8%
viability at 10 µM (UACC-257): 50.8%
viability at 10 µM (SW-620): 76.7%
viability at 10 µM (KM12): 29.9%
viability at 10 µM (K562): 20.1%
viability at 10 µM (OVCAR-5): 110%
viability at 10 µM (ACHN): 42.5%
viability at 10 µM (U-251): 70%
viability at 10 µM (SF-295): 51.1%
viability at 10 µM (SNB-75): 88.6%
viability at 10 µM (SNB-19): 76.8%
viability at 10 µM (IGROV-1): 18.9%
viability at 10 µM (EKVX): 52.4%
viability at 10 µM (OVCAR-8): 18.4%
viability at 10 µM (CAKI-1): 41.5%
viability at 10 µM (SF-268): 55.6%
viability at 10 µM (SK-OV-3): 66%
viability at 10 µM (HOP-92): 74.8%
viability at 10 µM (UO-31): 28.2%
viability at 10 µM (MOLT-4): 9.94%
viability at 10 µM (TK-10): 72.3%
viability at 10 µM (SN12C): 56.3%
viability at 10 µM (HCT-116): 48%
viability at 10 µM (OVCAR-3): 50.7%
viability at 10 µM (OVCAR-4): 26.8%
viability at 10 µM (SK-MEL-5): 13.5%
viability at 10 µM (M14): 28.6%
viability at 10 µM (BT-549): 33.2%

O=S(=O)(NCCCNc1nccc(-c2c(-c3cccc(F)c3)nc3sccn23)n1)c1ccc(Cl)cc1
viability at 10 µM (786-0): 83.6%
viability at 10 µM (NCI/ADR-RES): 67.4%
viability at 10 µM (RPMI-8226): 55.3%
viability at 10 µM (HCC 2998): 123%
viability at 10 µM (UACC-62): 40.4%
viability at 10 µM (PC-3): 52%
viability at 10 µM (HOP-62): 102%
viability at 10 µM (Malme-3M): 107%
viability at 10 µM (COLO 205): 41.3%
viability at 10 µM (MDA-MB-435): 53.1%
viability at 10 µM (NCI-H322M): 93.2%
viability at 10 µM (CCRF-CEM): 46.6%
viability at 10 µM (NCI-H522): 57.4%
viability at 10 µM (NCI-H23): 86%
viability at 10 µM (UACC-257): 103%
viability at 10 µM (SW-620): 104%
viability at 10 µM (KM12): 72.7%
viability at 10 µM (K562): 31.7%
viability at 10 µM (OVCAR-5): 125%
viability at 10 µM (ACHN): 60%
viability at 10 µM (U-251): 90.2%
viability at 10 µM (SF-295): 87.1%
viability at 10 µM (SNB-75): 102%
viability at 10 µM (SNB-19): 93%
viability at 10 µM (IGROV-1): 42.7%
viability at 10 µM (EKVX): 75.4%
viability at 10 µM (OVCAR-8): 50.2%
viability at 10 µM (CAKI-1): 63%
viability at 10 µM (SF-268): 76.3%
viability at 10 µM (SK-OV-3): 78.1%
viability at 10 µM (HOP-92): 85.7%
viability at 10 µM (UO-31): 41.8%
viability at 10 µM (MOLT-4): 48.3%
viability at 10 µM (TK-10): 99%
viability at 10 µM (SN12C): 65.9%
viability at 10 µM (HCT-116): 64%
viability at 10 µM (OVCAR-3): 79.8%
viability at 10 µM (OVCAR-4): 61.4%
viability at 10 µM (SK-MEL-5): 40.9%
viability at 10 µM (M14): 66.1%
viability at 10 µM (BT-549): 85.4%
